Tests used:
[1] = system: PKA/CREB signaling; experiment: Western blot and fluorescent staining of PKA and CREB phosphorylation in primary DRG neurons; type: cell-based, mice
Description: DRG neuron culture was processed as described previously. Saijilafu and Zhou, 2012. Briefly, the dishes or coverslips for DRG neuron culture were coated with 50 μL working solution containing 100 μg/mL Poly-D-Lysine and 10 µg/mL Laminin at 37° C. To prepare the neuron culture medium, alpha minimum essential medium (α-MEM) was supplemented with 1× penicillin-streptomycin solution (500 units of penicillin and 500 μg of streptomycin, Gibco Laboratories, Gaithersburg, Md.), 5% fetal bovine serum (Gibco), 1× GlutaMAX-1 supplement (35050-061, Thermo Fisher Scientific), and the antimitotic reagents containing 20 μM 5-fluoro-2-deoxyuridine (F0503, Sigma-Aldrich) and 20 μM uridine (U3003, Sigma-Aldrich). For the serum-free medium, the fetal bovine serum was replaced with the supplement B27. After euthanizing the 6- to 8-week-old mice, the lumbar DRGs were harvested and stored in microfuge tubes with α-MEM medium placed on ice. […]
The primary DRG neurons were treated with 20 μM PGE2(14010, Cayman Chemical, Ann Arbor, Mich.) for 30 min; 10 μM PKA inhibitor (H-89, BML-E1196, Enzo Life Sciences, Farmingdale, N.Y.) for 1 h. […] Specific antibodies were applied for incubation, and the proteins were detected by using an enhanced chemiluminescence kit (Amersham Bioscience, RNP2108). […]

[2] = system: primary DRG neurons; experiment: Sodium indication (ANG-2 AM) in primary DRG neurons; type: cell-based, mice
Description: DRG neuron culture was processed as described previously. Saijilafu and Zhou, 2012. Briefly, the dishes or coverslips for DRG neuron culture were coated with 50 μL working solution containing 100 μg/mL Poly-D-Lysine and 10 µg/mL Laminin at 37° C. To prepare the neuron culture medium, alpha minimum essential medium (α-MEM) was supplemented with 1× penicillin-streptomycin solution (500 units of penicillin and 500 μg of streptomycin, Gibco Laboratories, Gaithersburg, Md.), 5% fetal bovine serum (Gibco), 1× GlutaMAX-1 supplement (35050-061, Thermo Fisher Scientific), and the antimitotic reagents containing 20 μM 5-fluoro-2-deoxyuridine (F0503, Sigma-Aldrich) and 20 μM uridine (U3003, Sigma-Aldrich). For the serum-free medium, the fetal bovine serum was replaced with the supplement B27. After euthanizing the 6- to 8-week-old mice, the lumbar DRGs were harvested and stored in microfuge tubes with α-MEM medium placed on ice. DRG neurons were digested and dissociated with 1 mg/mL collagenase A solution (10103578001, Roche, Basel, Switzerland) in a 37° C. incubator for 90 min followed by 1× TrypLE Express solution (15140-122, Thermo Fisher) at 37° C. for 20 min. Then, TrypLE Express solution was removed, and DRGs were washed gently 3 times with 1 mL prepared culture medium (containing 5% fetal bovine serum). Tissue was triturated by gently pipetting up and down 20-30 times in 1 mL prepared culture medium. After trituration, the DRG neuron suspension was filtered (40-μm strainer) following non-dissociated tissue settlement to the bottom of the microfuge and transferred to another tube. After centrifugation (800 r.p.m for 4 min at room temperature), the cell pellet was resuspended and cultured in a precoated dish.
For sodium indication. ANG-2 AM (Teflabs, Austin, Tex.) was used according to the manufacturer's protocol. Briefly, 1 mM stock solution of ANG-2 AM was diluted to twice the original volume with a solution of 20% Pluronic F-127 (Thermo Fisher Scientific) in DMSO. Then, the ANG-2 AM/Pluronic F-127 solution was dispersed to final concentration at 5 μM ANG-2 AM and 0.1% Pluronic F-127 with serum-free culture medium. After incubation for 1 h at 37° C., the cell loading medium was removed. The cells were washed with serum-free and dye-free medium and prepared for sodium imaging. The sterile imaging buffer contained 5.4 mM KCL, 160 mM NaCL, 20 mM HEPES, 1.3 mM CaCL2, 0.8 mM MgSO4, 0.78 mM NaH2PO4, and 5 mM glucose (pH 7.4) The sodium imaging was monitored and captured using a confocal microscope (Zeiss LSM 780).
In different sets of experiments, the DRG neurons were treated with 20 μM PGE2 (14010, Cayman Chemical, Ann Arbor, Mich.) for 5 min. […]

[3] = system: patients with Modic changes associated LBP; settings: cited from earlier work
[4] = system: OA joint; settings: intra-articular injection; cited from earlier work

CCCCC[C@H](O)/C=C/[C@H]1[C@H](O)CC(=O)[C@@H]1C/C=C\CCCC(=O)O [PGE2, Prostaglandin E2]
activation of PKA and CREB ([1]; PGE2 20 μM 30 min): activates | PGE2-stimulated sodium influx ([2]; DRG neurons of EP4−/− mice): abolished | sodium influx (fluorescent intensity of sodium indicator) ([2]; PGE2 20 μM 5 min, DRG neurons from EP4f/f mice): significantly stimulated the enhancement of the fluorescent intensity

O=S(=O)(NCCNC/C=C/c1ccc(Br)cc1)c1cccc2cnccc12 [PKA inhibitor, H-89]
PGE2-induced activation of PKA and CREB ([1]; H-89 10 μM 60 min): abrogated | PGE2-induced sodium influx ([2]; PGE2 20 μM combined with H-89 10 μM or siRNA for Nav 1.8): ablated

CCCC(=O)Nc1ncnc2c1ncn2[C@@H]1O[C@@H]2COP(=O)(O)O[C@H]2[C@H]1OC(=O)CCC [cAMP, dibutyryl-cAMP]
sodium influx ([2]; DRG neurons of EP4−/− mice, PGE2 combined with cAMP): rescued sodium influx

denosumab
analgesic effects [3]: analgesic effects

hyaluronic acid
duration of pain relief [4]: up to 6 months
